According to ChEMBL document CHEMBL1201862, “PubChem BioAssay data set” (2004):
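Briefly, cells in 96-well plates were exposed to five compound concentrations for 48 h, and endpoints were estimated by linear interpolation. Abbreviation: GI50, concentration required for 50% inhibition of growth.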 Active and inactive are the calls of the source. Rule as the data show it: active = GI50 up to about 1.1 µM and inactive = higher.

Columns and labels:
Assay in all cases: inhibition of tumour cell growth, NCI panel, 48 h
[1] = system: HOP-62
[2] = system: M14
[3] = system: K562
[4] = system: HCT-116
[5] = system: SK-MEL-2
[6] = system: RXF 393
[7] = system: Malme-3M
[8] = system: SF-268
[9] = system: BT-549
[10] = system: OVCAR-5
[11] = system: CAKI-1
[12] = system: HT-29
[13] = system: SN12C
[14] = system: MOLT-4
[15] = system: SNB-19
[16] = system: CCRF-CEM
[17] = system: HCC 2998
[18] = system: UACC-62
[19] = system: RPMI-8226

SMILES: CC1(C)CC(=O)C(Cc2ccccc2)(Cc2ccccc2)C(=O)C1
- GI50 [1]: > 100 µM (inactive)
- GI50 [2]: > 100 µM (inactive)
- GI50 [3]: > 100 µM (inactive)
- GI50 [4]: > 100 µM (inactive)
- GI50 [5]: > 100 µM (inactive)
- GI50 [6]: 33.8 µM (inactive)
- GI50 [7]: > 100 µM (inactive)
- GI50 [8]: > 100 µM (inactive)
- GI50 [9]: > 100 µM (inactive)
- GI50 [10]: > 100 µM (inactive)
- GI50 [11]: > 100 µM (inactive)
- GI50 [12]: > 100 µM (inactive)
- GI50 [13]: > 100 µM (inactive)
- GI50 [14]: > 100 µM (inactive)
- GI50 [15]: > 100 µM (inactive)
- GI50 [16]: > 100 µM (inactive)
- GI50 [17]: > 100 µM (inactive)
- GI50 [18]: > 100 µM (inactive)

SMILES: Cc1c(C(=O)O)n2c(C)nnc2c2ccccc12
- GI50 [1]: > 100 µM (inactive)
- GI50 [2]: > 100 µM (inactive)
- GI50 [3]: > 100 µM (inactive)
- GI50 [4]: > 100 µM (inactive)
- GI50 [5]: > 100 µM (inactive)
- GI50 [6]: > 100 µM (inactive)
- GI50 [8]: > 100 µM (inactive)
- GI50 [9]: > 100 µM (inactive)
- GI50 [10]: > 100 µM (inactive)
- GI50 [11]: > 100 µM (inactive)
- GI50 [12]: > 100 µM (inactive)
- GI50 [13]: > 100 µM (inactive)
- GI50 [14]: > 100 µM (inactive)
- GI50 [16]: > 100 µM (inactive)
- GI50 [17]: > 100 µM (inactive)
- GI50 [18]: > 100 µM (inactive)

SMILES: O=C(NS(=O)(=O)Nc1ccc(Cl)cc1)OCc1ccc(Cl)cc1Cl
- GI50 [1]: 36.7 µM (inactive)
- GI50 [2]: 41 µM (inactive)
- GI50 [3]: 28.4 µM (inactive)
- GI50 [4]: 20 µM (inactive)
- GI50 [5]: 28.8 µM (inactive)
- GI50 [7]: 19.1 µM (inactive)
- GI50 [8]: 1.02 µM (active)
- GI50 [9]: 28.4 µM (inactive)
- GI50 [10]: 24.2 µM (inactive)
- GI50 [19]: 54.5 µM (inactive)
- GI50 [12]: 20.5 µM (inactive)
- GI50 [13]: 25.3 µM (inactive)
- GI50 [14]: 46.2 µM (inactive)
- GI50 [15]: 18.6 µM (inactive)
- GI50 [16]: 57 µM (inactive)
- GI50 [17]: 12.1 µM (inactive)
- GI50 [18]: 14 µM (inactive)

SMILES: COC(=O)[C@H]1COC(=O)N1
- GI50 [1]: > 100 µM (inactive)
- GI50 [2]: > 100 µM (inactive)
- GI50 [3]: > 100 µM (inactive)
- GI50 [4]: > 100 µM (inactive)
- GI50 [5]: > 100 µM (inactive)
- GI50 [6]: > 100 µM (inactive)
- GI50 [7]: > 100 µM (inactive)
- GI50 [8]: > 100 µM (inactive)
- GI50 [9]: > 100 µM (inactive)
- GI50 [10]: > 100 µM (inactive)
- GI50 [11]: > 100 µM (inactive)
- GI50 [12]: > 100 µM (inactive)
- GI50 [13]: > 100 µM (inactive)
- GI50 [14]: > 100 µM (inactive)
- GI50 [15]: > 100 µM (inactive)
- GI50 [16]: > 100 µM (inactive)
- GI50 [17]: > 100 µM (inactive)
- GI50 [18]: > 100 µM (inactive)

SMILES: CN(C)C1(c2cc3ccccc3s2)CCCCC1
- GI50 [1]: 58.1 µM (inactive)
- GI50 [2]: 17.5 µM (inactive)
- GI50 [3]: 18 µM (inactive)
- GI50 [4]: 33.9 µM (inactive)
- GI50 [5]: 24.3 µM (inactive)
- GI50 [6]: 25.5 µM (inactive)
- GI50 [8]: 18.8 µM (inactive)
- GI50 [9]: 64.9 µM (inactive)
- GI50 [10]: 22.5 µM (inactive)
- GI50 [11]: 61.5 µM (inactive)
- GI50 [12]: 33 µM (inactive)
- GI50 [13]: 53.2 µM (inactive)
- GI50 [14]: 19.2 µM (inactive)
- GI50 [15]: 49 µM (inactive)
- GI50 [16]: < 0.01 µM (active)
- GI50 [17]: 22.9 µM (inactive)
- GI50 [18]: 20.5 µM (inactive)

SMILES: N/C(=N\O)N/N=C/c1cc(I)cc(I)c1O
- GI50 [1]: 42.3 µM (inactive)
- GI50 [2]: 19 µM (inactive)
- GI50 [3]: 43.2 µM (inactive)
- GI50 [4]: 23.7 µM (inactive)
- GI50 [5]: 54.8 µM (inactive)
- GI50 [6]: 24.5 µM (inactive)
- GI50 [7]: 19.3 µM (inactive)
- GI50 [8]: 24.1 µM (inactive)
- GI50 [9]: 47.4 µM (inactive)
- GI50 [10]: 79.1 µM (inactive)
- GI50 [11]: 57.1 µM (inactive)
- GI50 [12]: 46.7 µM (inactive)
- GI50 [13]: 28.8 µM (inactive)
- GI50 [14]: > 100 µM (inactive)
- GI50 [15]: 49.5 µM (inactive)
- GI50 [16]: 7.89 µM (inactive)
- GI50 [17]: 61.9 µM (inactive)
- GI50 [18]: 31.9 µM (inactive)
